Results reported in patent publication US20030069276A1, “Amino piperidine derivatives” (priority 2001, published 2003).

Target: human CCR5 (Homo sapiens, UniProt P51681)
Experiment: gp120-sCD4-CCR5 binding assay (FACS)
Conditions: CHO-K1 cell line stably transfected with the human CCR5 gene; biotinylated gp120 (JRFL strain) and soluble recombinant CD4; 1% DMSO
Procedure: gp120-sCD4-CCR5 Binding Assay:
The gp120-sCD4-CCR5 binding assay was carried out as previously described (Dragic, T., A. Trkola, et al. (2000). “A binding pocket for a small molecule inhibitor of HIV-1 entry within the transmembrane helices of CCR5.” Proc Natl Acad Sci USA 97: 5639-44.) with the following minor modifications: the cell line used for these experiments was a CHO-K1 cell line stably transfected with the human CCR5 gene; the gp120-CD4 complex comprised recombinant biotinylated gp120 (JRFL strain) and soluble recombinant CD4; and all compounds were tested in a final concentration of 1% DMSO.
All reagents and cell lines were obtained from Progenics Pharmaceuticals Inc, Tarrytown, N.Y., USA, and are commercially available or can be prepared according to the methods described and the information given in the papers above.

human CCR5, sequence (P51681 whole entry): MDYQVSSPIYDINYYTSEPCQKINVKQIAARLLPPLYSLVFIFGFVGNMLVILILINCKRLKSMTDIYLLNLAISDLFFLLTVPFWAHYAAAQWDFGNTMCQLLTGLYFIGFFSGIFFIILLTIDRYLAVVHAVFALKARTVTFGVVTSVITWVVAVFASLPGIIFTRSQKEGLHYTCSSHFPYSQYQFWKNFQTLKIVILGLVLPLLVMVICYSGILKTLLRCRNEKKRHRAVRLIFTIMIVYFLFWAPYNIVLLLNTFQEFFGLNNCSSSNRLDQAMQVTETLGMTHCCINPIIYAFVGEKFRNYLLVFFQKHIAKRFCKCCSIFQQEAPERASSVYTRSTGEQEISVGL

Structure (SMILES): Cc1ccc(-c2nc(CN3CCC(N(Cc4ccccc4)C(=O)Nc4ccccc4)CC3)c(C)[nH]2)cc1 [1-Benzyl-1-[1-[5-methyl-2-(4-methylphenyl)-1H-imidazol-4-ylmethyl]-4-piperidinyl]-3-phenylurea]
- IC50: 30 nM

Structure (SMILES): Cc1[nH]c(-c2ccc(C(F)(F)F)cc2)nc1CN1CCC(N(Cc2ccccc2)C(=O)Nc2ccc([N+](=O)[O-])cc2)CC1 [1-Benzyl-1-[1-[[2-[4-(trifluoromethyl)phenyl]-5-methyl-1H-imidazol-4-yl]methyl]-4-piperidinyl]-3-(4-nitrophenyl)urea]
- IC50: 450 nM

Structure (SMILES): CNC(=O)N(Cc1ccccc1)C1CCN(Cc2c(C)nc(-c3ccc(C(F)(F)F)cc3)n2Cc2ccccc2)CC1 [1-Benzyl-1-[1-[[3-benzyl-5-methyl-2-[4-(trifluoromethyl)phenyl]-3H-imidazol-4-yl]methyl]-4-piperidinyl]-3-methylurea]
- IC50: 1100 nM

Structure (SMILES): CNC(=O)N(Cc1ccccc1)C1CCN(Cc2nc(-c3ccccc3OC)[nH]c2C)CC1 [1-Benzyl-1-{1-[2-(2-methoxy-phenyl)-5-methyl-1H-imidazol-4-ylmethyl]-piperidin-4-yl}-3-methyl-urea]
- IC50: 9600 nM

Structure (SMILES): CNC(=O)N(Cc1ccccc1)C1CCN(Cc2nc(-c3ccc(C(F)(F)F)cc3)[nH]c2C)CC1 [1-Benzyl-3-methyl-1-[1-[[5-methyl-2-[4-(trifluoromethyl)phenyl]-1H-imidazol-4-yl]methyl]-4-piperidinyl]urea]
- IC50: 110 nM

Structure (SMILES): CNC(=O)N(Cc1ccccc1)C1CCN(Cc2nc(-c3ccc(C(F)(F)F)cc3)[nH]c2-c2ccccc2)CC1 [1-Benzyl-3-methyl-1-[1-[[5-phenyl-2-[4-(trifluoromethyl)phenyl]-1H-imidazol-4-yl]methyl]-4-piperidinyl]urea]
- IC50: 19100 nM
